Source: EPA's ToxValDB 9.5
Several values for one entry are separate records, joined by “and”; a condition that tells them apart may be missing. Identical values can stand only once.

How the values were obtained:
Rattus norvegicus [1] = test system: Rattus norvegicus
Rattus norvegicus [2] = test system: Rattus norvegicus; remark: listed apart in the source
Rattus norvegicus [3] = details: subchronic; duration: 13 weeks; oral; diet; M; Sprague-Dawley; renal
Rattus norvegicus [4] = details: oral; for NOAEL: diet
Rattus norvegicus [5] = details: oral, M/F
Mus musculus = details: uterotrophic, Active
Rattus norvegicus [6] = details: for LEL: uterotrophic, Active
[7] = subchronic, duration: 90 days, oral, M/F, hematologic, hepatic and renal toxicity
[8] = chronic, duration: 1 years, oral, blood pressure and body weight histopathological liver, kidney and spleen
[9] = duration: 4 days, injection, subcutaneous
[10] = Hershberger, duration: 10 days, oral, gavage, Sprague-Dawley, active + Androgenic + Negative + androgenic
[11] = duration: 14 days, injection, subcutaneous
[12] = chronic, duration: 2 years, oral, diet, M/F, reduced weight gains hematological females

In the case of `CCOP(=O)(/N=C1\SCC(C)S1)OCC` (stereo not drawn) [Mephosfolan], the NOEL (Rattus norvegicus [1]; chronic, duration: 17 weeks, oral, diet, Blood: Decreased cholinesterase activity + Brain: Decreased cholinesterase activity + Erythrocytes: Decreased cholinesterase activity + …) is reported as 0.09 mg/kg-day.

`O=C(O)COc1ccc(Cl)cc1Cl` [2,4-Dichlorophenoxyacetic acid] was tested, and the LOAEL (Rattus norvegicus [2]; [7]) was 5 mg/kg-day, the NOAEL (Rattus norvegicus [2]; [7]) was 1 mg/kg-day and the NOAEL (Rattus norvegicus [3]) was 16.6 mg/kg-day. The NOAEL (Rattus norvegicus [1]; chronic, duration: 91 days, oral, diet, Blood: Toxicity + Kidney: Toxicity + Liver: Toxicity) was 1 mg/kg-day.

In the case of `COP(=O)(NC(C)=O)SC` (stereo not drawn) [Acephate], the LEL (Rattus norvegicus [2]; subchronic, duration: 90 days, oral, diet, M, Inhibition of brain ChE) is reported as 0.12 mg/kg-day and the LOAEL (Rattus norvegicus [1]; subchronic, duration: 13 weeks, oral, diet, Brain: Decreased cholinesterase activity) is reported as 0.192 mg/kg-day.

With `C=CBr` [Vinyl bromide] the LOAEL (Rattus norvegicus [2]; chronic, inhalation, M/F, hypertrophy, basophilic and eosinophilic foci, in the liver) was 43 mg/m3 and the LOAEL (Rattus norvegicus [1]; chronic, duration: 24 months, inhalation, intermittent, Liver: Basophilic foci + Liver: Eosinophilic foci + Liver: Hypertrophy) was 42.4 mg/m3.

`Cc1ccc(O)cc1C` [3,4-Dimethylphenol] was tested, and the LOAEL (Rattus norvegicus [2]; [8]) was 14 mg/kg-day, the NOEL (Rattus norvegicus [2]; [8]) was 1.4 mg/kg-day and the NOEL (Rattus norvegicus [1]; chronic, duration: 8 months, oral, Cardiovascular system: Altered blood pressure + Organs, major: Lesions + Whole body: Decreased weight) was 1.4 mg/kg-day.

`CC1CO1` (racemic) [(+/-)-1,2-Propylene oxide] was tested, and the LOAEL (Rattus norvegicus [2]; chronic, duration: 2 years, inhalation, M/F, nest-like infolds of the nasal respiratory epithelium) was 71 mg/m3 and the LOAEL (Rattus norvegicus [1]; chronic, duration: 2 years, inhalation, intermittent, Epithelium: Unspecified) was 71 mg/m3.

Compound `CC(C)CCCCCCc1ccc(O)cc1` [4-Nonylphenol, branched] has an LD50 (Rattus norvegicus [4]; acute) of 1880 mg/kg, an NOAEL (Rattus norvegicus [4]; reproduction developmental, Sprague-Dawley) of 15 mg/kg-day and an NOAEL (Rattus norvegicus [4]; short-term, duration: 28 days, Crl:CD(SD) BR) of 100 mg/kg-day. For the same compound, the NOAEL (Rattus norvegicus [4]; subchronic, duration: 90 days, Sprague-Dawley) was 50 mg/kg-day, the NOEL (Rattus norvegicus [5]; short-term, duration: 28 days, gavage, Crj:CD, Deaths + Clinical Observation: Salivation, Urinary incontinence Abnormal estrus cycle + Hematology: Ret increase, RBC decrease, Plt increase…) was 10 mg/kg-day and the LEL (Mus musculus; duration: 3 days, injection, subcutaneous) was 1000 mg/kg-day. The LEL (Rattus norvegicus [6]; duration: 3 days, oral) was 190 mg/kg-day.

`C=CC(=C)Cl` [Chloroprene] gave an NOAEL (Rattus norvegicus [1]; chronic, duration: 2 years, inhalation, intermittent, Hair: Alopecia + Whole body: Decreased weight gain) of 36.2 mg/m3 and an NOAEL (Rattus norvegicus [1]; subchronic, duration: 90 days, inhalation, Olfactory epithelium: Degeneration) of 116 mg/m3.

`ClC1=C(Cl)[C@]2(Cl)C3C(Cl)C(Cl)CC3[C@@]1(Cl)C2(Cl)Cl` (stereo partly drawn) [Chlordane] was tested, and the NOEL (Rattus norvegicus [1]; chronic, duration: 130 weeks, oral, diet, Liver: Hypertrophy) was 0.055 mg/kg-day.

`COC(=O)c1ccc(C(=O)OC)cc1` [Dimethyl terephthalate] showed an NOAEL (Rattus norvegicus [5]; subchronic, duration: 90 days, diet, Body Weight Changes: Weight gain decrease + Histopathology: Liver: Hepatocyte hypertrophy, diffuse) of 480 mg/kg-day, an LOAEL (Rattus norvegicus [2]; chronic, oral, diet, M/F, chronic kidney inflammation) of 125 mg/kg-day and an LOAEL (Rattus norvegicus [1]; chronic, duration: 103 weeks, oral, diet, Kidney: Inflammation) of 125 mg/kg-day.

With `C#C[C@]1(O)CC[C@H]2[C@@H]3CCc4cc(O)ccc4[C@H]3CC[C@@]21C` [17alpha-Ethinylestradiol] the NOEL (Rattus norvegicus [5]; short-term, duration: 28 days, gavage, Crj:CD, Body Weight Changes: decrease + Food Consumption: decrease + Blood Chemistry: A/G decrease >0 Cho decrease 0 Alp increase, gamma-GTP …) was less than 0.01 mg/kg-day, the LEL (Mus musculus; duration: 0 days, oral, diet) was 0.0001 ppm and the “LEL (fractional dose of pill)” value (Mus musculus; duration: 3 days, oral) was 0.001. The LEL (Mus musculus; [9]) was 0.002 mg/kg-day, the LOEL (Rattus norvegicus [6]; [10]) was 50 mg/kg-day and the NOEL (Rattus norvegicus [6]; [10]) was 10 mg/kg-day. It also gave an LEL (Rattus norvegicus [6]; duration: 1 days, dermal) of 0.125 mg/L, an LEL (Rattus norvegicus [6]; duration: 3 days, oral, diet) of 0.001 mg/kg-day and an LEL (Rattus norvegicus [6]; duration: 4 days, oral) of 0.03 mg/kg-day. The LEL (Rattus norvegicus [6]; duration: 4 days, oral, diet) was 0.000342 mg/kg-day, the LEL (Rattus norvegicus [6]; duration: 21 days, oral) was 0.01 mg/kg-day and the LEL (Rattus norvegicus [6]; duration: 28 days, oral) was 0.2 mg/kg-day.

Work on `O=c1c(-c2ccc(O)cc2)coc2cc(O)cc(O)c12` [Genistein] yielded an NOEL (Rattus norvegicus [5]; subchronic, diet, Wistar, Body Weight Changes: decrease + Food Consumption: decrease + Hematology: RBC decrease, Ret increase, , Hgb decrease + Blood Chemistry: gamma…) of 50 mg/kg-day, an LEL (Mus musculus; duration: 0.17 days, injection, subcutaneous) of 0.00027 mg and an LEL (Mus musculus; duration: 3 days, injection, intraperitoneal) of 1.25 mg/day. It also gave an LEL (Mus musculus; [9]) of 2 mg/day, an LEL (Mus musculus; duration: 4 days, oral) of 100 mg/kg-day and an LEL (Mus musculus; duration: 4 days, oral, diet) of 2.5 mg/day. It also gave an LEL (Mus musculus; duration: 6 days, oral, diet) of 5.77 mg, an LEL (Mus musculus; duration: 7 days, oral) of 200 mg/kg-day and an LEL (Mus musculus; duration: 10 days, injection, subcutaneous) of 0.5 mg/day. The LEL (Mus musculus; [11]) was 2 mg/day and 3 mg/day and 5 mg/day, the LEL (Mus musculus; duration: 28 days, injection, subcutaneous) was 25 mg/kg-day and the LEL (Rattus norvegicus [6]; duration: 0 days, injection, intraperitoneal) was 1.25 mg. It also gave an LEL (Rattus norvegicus [6]; duration: 1 days, injection, intraperitoneal) of 0.4 mg, an LEL (Rattus norvegicus [6]; duration: 3.5 days, injection, subcutaneous) of 1.25 mg/day and an LEL (Rattus norvegicus [6]; duration: 4 days, oral) of 100 mg/kg-day. For the same compound, the LEL (Rattus norvegicus [6]; duration: 5 days, oral, diet) was 375 mg/kg-day, the LEL (Rattus norvegicus [6]; duration: 7 days, oral) was 60 mg/kg-day and the LEL (Rattus norvegicus [6]; [11]) was 250 mg/kg-day. The LEL (Rattus norvegicus [6]; duration: 30 days, oral) was 125 mg/kg-day.

`CCNc1nc(Cl)nc(NCC)n1` [Simazine] gave an LOAEL (Rattus norvegicus [2]; [12]) of 5.3 mg/kg-day, an NOAEL (Rattus norvegicus [2]; [12]) of 0.52 mg/kg-day and an NOEL (Rattus norvegicus [6]; Hershberger, duration: 7 days, oral, gavage, Wistar, inactive + Negative + neither + AST wt decreased at 75 and above / doses above 75 associated with >10% decrease in body wt / cite a …) of 6.25 mg/kg-day. The NOEL (Rattus norvegicus [6]; Hershberger, duration: 10 days, oral, gavage, Sprague-Dawley, inactive + Negative + Negative + neither + AST wt decreased at 75 and above / doses above 75 associated with >10% decrease in body wt) was 25 mg/kg-day and the NOAEL (Rattus norvegicus [1]; chronic, duration: 2 years, oral, diet, Blood: Hematological effects + Whole body: Decreased weight gain) was 0.52 mg/kg-day.
